System: PC-3 cells
Assay: Label-free quantitative proteomics and Ingenuity Pathway Analysis
Format: cell-based, human
Conditions: PC-3, 10 μM, 72 hours
Method: FIG. 7. Volcano Plot of Differentially regulated proteins in response to C3 treatment. PC-3 cells were treated with DMSO or 10 μM C3 for 72 hours and proteins were quantified using label free quantitative mass spectrometry. Proteins were graphed by fold change (Difference) and significance (−Log p) using a false discovery rate of 0.05 and an S0 of 0.1.
FIG. 8 Ingenuity pathway analysis of proteomic data from C3 treatment of PC-3 cells.
Wound Healing Assay. PC-3 cells were seeded in 6 well plates at 3×10^5 cells per well in complete media until the cells reached confluency. Three horizontal and three vertical scratches were made in the confluent monolayers using a standard 200 μL pipette tip and cellular debris were removed by washing with 1×DPBS three times. 1×RPMI-1640 supplemented with C3 or DMSO was added and cells were incubated for 48 hours as described previously. […] Images were uploaded and analyzed for scratch geometry using the tscratch program (96). First, global thresholding was performed, then individual images were manually inspected for single image threshold adjustment and scratch geometries were quantified. […] The samples were analyzed using the Dionex UltiMate 3000 RSLC Nano System coupled to the Q Exactive™ HF Hybrid Quadrupole-Orbitrap MS (Thermo Scientific). […]

O=C(c1cc(F)cc2c1OCOC2)N1CCN(C2c3ccccc3-c3ccccc32)CC1 [Compound C3, [4-(9h-fluoren-9-yl)piperazino](6-fluoro-4h-1,3-benzodioxin-8-yl)methanone] was tested, and the ICT1 protein level was 1.9 FC.

Reference: patent US11022604B2, “Dock derived compound against laminin receptor (37 LR) and uses thereof” (Purdue Research Foundation, priority 2017, dated 2021)
